We go through 15 molecules from patent publication US5935973A, “Heterocyclcarboxamide derivatives and their use as therapeutic agents” (Knoll Aktiengesellschaft, priority 1995, dated 1999).

For one test, the target named is T1, 5-HT1A receptors (Rattus norvegicus, UniProt P19327).
T1 construct: Hippocampal tissue from the brains of male Sprague-Dawley rats; from tissue; host or cells: rat hippocampus membranes
T1 sequence (P19327 1-422): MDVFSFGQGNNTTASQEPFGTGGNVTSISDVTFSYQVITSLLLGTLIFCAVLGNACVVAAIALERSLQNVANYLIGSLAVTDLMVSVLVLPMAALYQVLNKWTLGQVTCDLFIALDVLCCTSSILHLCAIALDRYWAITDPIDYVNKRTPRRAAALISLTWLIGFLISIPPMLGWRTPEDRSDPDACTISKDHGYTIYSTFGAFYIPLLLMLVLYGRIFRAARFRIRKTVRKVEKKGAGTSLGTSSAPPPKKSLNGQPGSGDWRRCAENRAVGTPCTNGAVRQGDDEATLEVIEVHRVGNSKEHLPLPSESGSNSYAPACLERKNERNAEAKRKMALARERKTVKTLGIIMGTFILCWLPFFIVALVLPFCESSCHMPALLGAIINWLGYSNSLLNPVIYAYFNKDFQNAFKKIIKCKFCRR
In words: inhibition of [3H]8-OH-DPAT binding to 5-HT1A receptors in rat hippocampal tissue. As to conditions: rat hippocampus; for inhibition at 1 µM: at 10^-6 M, [3H]8-OH-DPAT, read-out: % displacement of radio ligand, 5-HT1A; for Ki: [3H]8-OH-DPAT 2 nM, 25° C., 30 min. Here is the method:
Hippocampal tissue from the brains of male Sprague-Dawley rats (Charles River; weight range 150-250 g) was homogenised in ice-cold 50 mM Tris-HCl buffer (pH 7.7 when measured at 25° C., 1:40 w/v) and centrifuged at 30,000 g at 4° C. for 10 minutes. The pellet was rehomogenised in the same buffer, incubated at 37° C. for 10 minutes and centrifuged at 30,000 g at 4° C. for 10 minutes. The final pellet was resuspended in 50 mM Tris-HCl buffer (pH 7.7) containing 4 mM CaCl2, 0.1% L-ascorbic acid and 10 μM pargyline hydrochloride (equivalent to 6.25 mg wet weight of tissue/ml) and used immediately in the binding assay. Aliquots (400 μl; equivalent to 2.5 mg wet weight of tissue/tube) of this suspension were added to tubes containing the ligand (50 μl; 2 nM) and distilled water (50 μl total binding) or 5-HT (50 μl; 10 μM; non-specific binding) or test compound (50 μl; at a single concentration of 10^-6 M or at 10 concentrations ranging from 10^-11 -10^-3 M). The ligand was [^3 H]8-hydroxy-2-(dipropylamino)tetralin ([^3 H]8-OH-DPAT) and the mixture was incubated at 25° C. for 30 minutes before the incubation was terminated by rapid filtration.
(§1) The filters were washed with ice-cold Tris-HCl buffer and dried. The filters were punched out into vials, scintillation fluid added and radioactivity determined by liquid scintillation counting. The percentage displacement of specific binding of the tritiated ligand was calculated for the single concentration (10^-6 M) of test compound. Displacement curves were then produced for those compounds which displaced ≥50% of specific binding of the tritiated ligand at 10^-6 M using a range of concentrations of the compound. The concentration which gave 50% inhibition of specific binding (IC50) was obtained from the curve. The inhibition coefficient Ki was then calculated using the formula [formula] in which [ligand] is the concentration of the tritiated ligand used and KD is the equilibrium dissociation constant for the ligand.

A further test concerns α1-adrenoceptors. Nature of the test: inhibition of [7-methoxy-3H]prazosin binding to α1-adrenoceptors in rat whole cortical tissue. As to conditions: rat whole cortex, 30 min; for % displacement of radio ligand, α1: at 10^-6 M, [7-methoxy-3H]prazosin, 1 µM; for Ki: [7-methoxy-3H]prazosin 0.1 nM, 30° C. Here is the method: Whole cortical tissue from the brains of male Charles River CD rats weighing between 150-250 g were homogenised in ice-cold 50 mM Tris-HCl, pH 7.6 (at 25° C.; 1:40 w/v) and centrifuged at 1000 g at 4° C. for 10 minutes. The supernatant was centrifuged at 30,000 g at 4° C. for 10 minutes. The pellet was rehomogenised in 50 mM Tris-HCl, pH 7.6 (1:40 w/v) and centrifuged at 30,000 g at 4° C. for 10 minutes. The final pellet was resuspended in 50 mM Tris-HCl, pH 7.6 (equivalent to 12.5 mg wet weight of tissue/ml) and used immediately in the binding assay. Aliquots (400 μl; equivalent to 5 mg wet weight of tissue/tube) of this suspension were added to tubes containing the ligand (50 μl; 0.1 nM) and distilled water (50 μl; total binding) or phentolamine (50 μl; 5 μM; non-specific binding) or test compound (50 μl; at a single concentration of 10^-6 M or at 10 concentrations ranging from 10^-11 -10^-3 M). The ligand was [7-methoxy-^3 H]prazosin and the mixture was incubated at 30° C. for 30 minutes before the incubation was terminated by rapid filtration.
as §1

Another test deals with T2, D2 dopamine receptors (Rattus norvegicus, UniProt P61169).
T2 construct: Striatal tissue from the brains of male Charles River CD rats; from tissue; host or cells: rat striatum membranes
T2 sequence (P61169 whole entry): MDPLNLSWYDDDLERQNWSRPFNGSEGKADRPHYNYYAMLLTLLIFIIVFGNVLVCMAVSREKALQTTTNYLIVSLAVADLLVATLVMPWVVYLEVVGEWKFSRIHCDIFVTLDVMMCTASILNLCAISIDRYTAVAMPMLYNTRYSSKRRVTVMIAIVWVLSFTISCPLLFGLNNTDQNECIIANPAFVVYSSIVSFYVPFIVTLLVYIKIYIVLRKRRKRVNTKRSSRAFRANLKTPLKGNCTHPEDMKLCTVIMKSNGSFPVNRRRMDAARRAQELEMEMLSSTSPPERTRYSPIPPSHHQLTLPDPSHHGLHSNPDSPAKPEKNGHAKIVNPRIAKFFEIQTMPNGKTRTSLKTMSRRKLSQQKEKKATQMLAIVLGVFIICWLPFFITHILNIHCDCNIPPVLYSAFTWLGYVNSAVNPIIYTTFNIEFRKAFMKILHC
Nature of the test: inhibition of tritiated (S)-sulpiride binding to D2 dopamine receptors in rat striatal tissue. As to conditions: rat striatum; for inhibition at 1 µM: at 10^-6 M, tritiated (S)-sulpiride, read-out: % displacement of radio ligand, D2; for Ki: tritiated (S)-sulpiride 1 nM, 4° C., 40 min. Here is the method:
Striatal tissue from the brains of male Charles River CD rats weighing between 140-250 g were homogenised in ice-cold 50 mM Tris-HCl buffer (pH 7.7 when measured at 25° C.) and centrifuged at 40,000 g for 10 minutes. The pellet was resuspended in Tris salts buffer (50 mM Tris-HCl buffer containing 120 mM NaCl, 5 mM KCl, 2 mM CaCl2 and 1 mM MgCl2 with the addition of 6 mM ascorbic acid; pH 7.7 when measured at 25° C.), and again centrifuged at 40,000 g for 10 minutes. The final pellet was stored at -80° C. Before each test the pellet was resuspended in Tris salts buffer (equivalent to 2 mg wet weight of tissue/ml). Aliquots (720 μl; equivalent to 1.44 mg wet weight of tissue/tube) of this suspension were then added to tubes containing the ligand (40 μl; 1 nM) and Tris salts buffer (40 μl; total binding) or spiroperidol (40 μl; 10 nM; non-specific binding) or test compound (40 μl; at a single concentration of 10^-6 M or at 6 concentrations ranging from 10^-11 -10^-4 M). The ligand was tritiated (S)-sulpiride and the mixture was incubated at 4° C. for 40 minutes before the incubation was terminated by rapid filtration.
The filters were washed with ice-cold Tris-HCl buffer and dried. The filters were punched out in to vials, scintillation fluid added and were left for about 20 hours before being counted by scintillation spectrophotometry. The percentage displacement of specific binding of the tritiated ligand was calculated for the single concentration (10^-6 M) of test compound. Displacement curves were then produced over a range of concentrations for those compounds which displaced ≥50% of specific binding of the tritiated ligand at 10^-6 M. The concentration which gave a 50% inhibition of specific binding (IC50) was obtained from the curve. The inhibition coefficient Ki was then calculated using the formula [formula] in [ligand] is the concentration of the tritiated ligand used and KD is the 2 equilibrium dissociation constant for the ligand.

Consider `O=C(NCC1CCN(C[C@H]2COc3ccc(Cl)cc3O2)CC1)c1cncc(Br)c1` [Example 42, (S)-5-bromo-N-{[1-(7-chloro-1,4-benzodioxan-2-ylmethyl)-4-piperidyl]methyl}pyridine-3-carboxamide], for which the figures for the inhibition at 1 µM on 5-HT1A receptors and at D2 dopamine receptors were 92% and 91%, respectively. Besides, the “% displacement of radio ligand, α1” value in the test on α1-adrenoceptors came to 62%.
In the case of `O=C(NCC1CCN(C[C@H]2COc3ccc(Br)cc3O2)CC1)c1cccnc1` [Example 35, (S)-N-{[1-(7-bromo-1,4-benzodioxan-2-ylmethyl)-4-piperidyl]methyl}pyridine-3-carboxamide], the inhibition at 1 µM at 5-HT1A receptors amounted to 95%; at D2 dopamine receptors, 101%. Moreover, the “% displacement of radio ligand, α1” value in the test on α1-adrenoceptors turned out to be 73%.
The corresponding values for `O=C(NCC1CCN(C[C@H]2COc3cccc(Cl)c3O2)CC1)c1cncc(Br)c1` [Example 52, (S)-5-bromo-N-{[1-(8-chloro-1,4-benzodioxan-2-ylmethyl)-4-piperidyl]methyl}pyridine-3-carboxamide] are 95%, 101% and 97%.
For the molecule `CSc1ncccc1C(=O)NCC1CCN(C[C@H]2COc3cccc(Cl)c3O2)CC1` [Example 51], the values for the inhibition at 1 µM at 5-HT1A receptors and on D2 dopamine receptors were 95% and 101%, respectively. The “% displacement of radio ligand, α1” value in the test with α1-adrenoceptors is 98%.
By Ki is commonly meant the equilibrium dissociation constant of an inhibitor or competing ligand from its target. Low readings indicate tighter binding, high ones weaker binding. Turning to `Cc1cccc(C(=O)NCC2CCN(C[C@H]3COc4ccc(Cl)cc4O3)CC2)n1` [Example 25, (S)-N-{[1-(7-chloro-1,4-benzodioxan-2-ylmethyl)-4-piperidyl]methyl}-6-methylpyridine-2-carboxamide], the Ki at 5-HT1A receptors was determined as 47 nM; at α1-adrenoceptors, 233 nM; on D2 dopamine receptors, 33 nM.
In the same order, the values of `O=C(NCC1CCN(C[C@H]2COc3cccc(Cl)c3O2)CC1)c1cccnc1` [Example 24, (S)-N-{[1-(8-chloro-1,4-benzodioxan-2-ylmethyl)-4-piperidyl]methyl}pyridine-3-carboxamide] are 34 nM, 9 nM and 16 nM.
In the same order, the values of `COc1ncccc1C(=O)NCC1CCN(C[C@H]2COc3ccc(Cl)cc3O2)CC1` [Example 26, (S)-N-{[1-(7-chloro-1,4-benzodioxan-2-ylmethyl)-4-piperidyl]methyl}-2-methoxypyridine-3-carboxamide] are 7 nM, 130 nM and 43 nM.
As to `Nc1ncccc1C(=O)N1CCC(CNCC2COc3ccc(Cl)cc3O2)CC1` (racemic) [Example 19, 1-(2-aminonicotinoyl)-4-[N-(7-chloro-1,4-benzodioxan-2-ylmethyl)aminomethyl]piperidine], the values for the Ki at 5-HT1A receptors, at α1-adrenoceptors and at D2 dopamine receptors were 30 nM, 49 nM and 11.4 nM, respectively.
Consider `O=C(NCC1CCN(C[C@H]2COc3ccc(Cl)cc3O2)CC1)c1ccc(-n2cccc2)nc1` [Example 40, (S)-N-{[1-(7-chloro-1,4-benzodioxan-2-ylmethyl)-4-piperidyl]methyl}-6-(1-pyrrolyl)pyridine-3-carboxamide], for which the inhibition at 1 µM worked out at 87% at 5-HT1A receptors and 91% on D2 dopamine receptors. In the test with α1-adrenoceptors, the “% displacement of radio ligand, α1” value is reported as 60%.
The corresponding values for `CSc1ncccc1C(=O)NCC1CCN(C[C@H]2COc3ccc(Cl)cc3O2)CC1` [Example 41, (S)-N-{[1-(7-chloro-1,4-benzodioxan-2-ylmethyl)-4-piperidyl]methyl}-2-(methylthio)pyridine-3-carboxamide] are 68%, 70% and 29%.
As to `CSc1ncccc1C(=O)NCC1CCN(C[C@H]2COc3ccc(Br)cc3O2)CC1` [Example 38, (S)-N-{[1-(7-bromo-1,4-benzodioxan-2-ylmethyl)-4-piperidyl]methyl}-2-(methylthio)pyridine-3-carboxamide], the inhibition at 1 µM was found to be 88% at 5-HT1A receptors and 99% at D2 dopamine receptors. Also, in the test on α1-adrenoceptors, the “% displacement of radio ligand, α1” value is on record as 51%.
As to `Cc1ccc2c(c1)O[C@@H](CN1CCC(CNC(=O)c3cccnc3C)CC1)CO2` [Example 31, (S)-2-methyl-N-{[1-(7-methyl-1,4-benzodioxan-2-ylmethyl)-4-piperidyl]-methyl}pyridine-3-carboxamide], the results for the inhibition at 1 µM on 5-HT1A receptors and on D2 dopamine receptors were 63% and 68%, respectively. The “% displacement of radio ligand, α1” value in the test on α1-adrenoceptors is 41%.
The corresponding values for `Cc1ncccc1C(=O)NCC1CCN(C[C@H]2COc3ccc(Br)cc3O2)CC1` [Example 36, (S)-N-{[1-(7-bromo-1,4-benzodioxan-2-ylmethyl)-4-piperidyl]methyl}-2-methylpyridine-3-carboxamide] are 80%, 98% and 54%.
The corresponding values for `O=C(NCC1CCN(C[C@H]2COc3cccc(Cl)c3O2)CC1)c1ccc(-n2cccc2)nc1` [Example 50, (S)-N-{[1-(8-chloro-1,4-benzodioxan-2-ylmethyl)-4-piperidyl)methyl}-6-(1-pyrrolyl)pyridine-3-carboxamide] are 97%, 101% and 98%.
As for `CSc1ncccc1C(=O)NCC1CCN(C[C@H]2COc3cccc(C(F)(F)F)c3O2)CC1` [Example 48, (S)-2-(methylthio)-N-{[1-(8-trifluoromethyl-1,4-benzodioxan-2-ylmethyl)-4-piperidyl]methyl}pyridine-3-carboxamide], the inhibition at 1 µM on 5-HT1A receptors was 80%; at D2 dopamine receptors it was 101%. Besides, the “% displacement of radio ligand, α1” value with α1-adrenoceptors is 93%.
